Data as given in patent US11547681B2, “N-acylethanolamide derivatives and uses thereof” (ELIEM THERAPEUTICS, INC., priority 2016, dated 2023).

Assay: in vitro
Conditions: for Concentration, analyte PEA / % Remaining of Initial (n = 1) / Measured concentration of PEA (analyte) / % Remaining of Initial: 1 μM
Summary of the method: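 Cofactor-supplemented liver S9 incubations at 37 °C contained 1 µM compound; timepoints out to 60 min, acid/organic quench, then LC-MS/MS monitoring of prodrug alongside its expected drug, PEA. Data are expressed as % remaining versus the zero-minute sample.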

[1] = male, CD-1, mouse, s9, Half-life
[2] = male, Sprague-Dawley, rat, 0 min
[3] = male, Sprague-Dawley, rat, 10 min
[4] = male, Sprague-Dawley, rat, 20 min
[5] = male, Sprague-Dawley, rat, 30 min
[6] = male, Sprague-Dawley, rat, 60 min
[7] = male, Sprague-Dawley, rat, s9, 0 h
[8] = male, Sprague-Dawley, rat, s9, 10 min
[9] = male, Sprague-Dawley, rat, s9, 20 min
[10] = male, Sprague-Dawley, rat, s9, 0.5 h
[11] = male, Sprague-Dawley, rat, s9, 1 h
[12] = male, Sprague-Dawley, rat, s9, Half-life

## CCCCC/C=C\C/C=C\CCCCCCCC(=O)OCC(COC(=O)CCC(=O)OCCNC(=O)CCCCCCCCCCCCCCC)OC(=O)CCCCCCC/C=C\C/C=C\CCCCC (centres unmarked) [Compound I-13]
both, human, 0 min
  Concentration, analyte PEA: 0 nM
both, human, 10 min
  Concentration, analyte PEA: 0 nM
both, human, 20 min
  Concentration, analyte PEA: 0 nM
both, human, 30 min
  Concentration, analyte PEA: 0 nM
both, human, 60 min
  Concentration, analyte PEA: 0 nM
both, human, s9, 0 h
  % Remaining of Initial (n = 1): 100%
both, human, s9, 10 min
  % Remaining of Initial (n = 1): 93%
both, human, s9, 20 min
  % Remaining of Initial (n = 1): 87%
both, human, s9, 0.5 h
  % Remaining of Initial (n = 1): 78%
both, human, s9, 1 h
  % Remaining of Initial (n = 1): 45%
both, human, s9, Half-life
  half-life at 1 μM: 58 min
male, Beagle, dog, 0 min
  Concentration, analyte PEA: 15 nM
male, Beagle, dog, 10 min
  Concentration, analyte PEA: 25 nM
male, Beagle, dog, 20 min
  Concentration, analyte PEA: 20 nM
male, Beagle, dog, 30 min
  Concentration, analyte PEA: 24 nM
male, Beagle, dog, 60 min
  Concentration, analyte PEA: 21 nM
male, Beagle, dog, s9, 0 h
  % Remaining of Initial (n = 1): 100%
male, Beagle, dog, s9, 10 min
  % Remaining of Initial (n = 1): 70%
male, Beagle, dog, s9, 20 min
  % Remaining of Initial (n = 1): 61%
male, Beagle, dog, s9, 0.5 h
  % Remaining of Initial (n = 1): 61%
male, Beagle, dog, s9, 1 h
  % Remaining of Initial (n = 1): 37%
male, CD-1, mouse, 0 min
  Concentration, analyte PEA: 0 nM
male, CD-1, mouse, 10 min
  Concentration, analyte PEA: 0 nM
male, CD-1, mouse, 20 min
  Concentration, analyte PEA: 0 nM
male, CD-1, mouse, 30 min
  Concentration, analyte PEA: 0 nM
male, CD-1, mouse, 60 min
  Concentration, analyte PEA: 0 nM
male, CD-1, mouse, s9, 0 h
  % Remaining of Initial (n = 1): 100%
male, CD-1, mouse, s9, 10 min
  % Remaining of Initial (n = 1): 89%
male, CD-1, mouse, s9, 20 min
  % Remaining of Initial (n = 1): 90%
male, CD-1, mouse, s9, 0.5 h
  % Remaining of Initial (n = 1): 79%
male, CD-1, mouse, s9, 1 h
  % Remaining of Initial (n = 1): 78%
[1]
  half-life at 1 μM: > 60 min
[2]
  Concentration, analyte PEA: 0 nM
[3]
  Concentration, analyte PEA: 0 nM
[4]
  Concentration, analyte PEA: 0 nM
[5]
  Concentration, analyte PEA: 0 nM
[6]
  Concentration, analyte PEA: 0 nM
[7]
  % Remaining of Initial (n = 1): 100%
[8]
  % Remaining of Initial (n = 1): 76%
[9]
  % Remaining of Initial (n = 1): 74%
[10]
  % Remaining of Initial (n = 1): 59%
[11]
  % Remaining of Initial (n = 1): 45%
[12]
  half-life at 1 μM: 50 min

## CCCCCCCCCCCCCCCC(=O)NCCOC(=O)CCC(=O)OC(COC(=O)CCC)COC(=O)CCC [Compound I-16]
both, human, 0 min
  Measured concentration of PEA (analyte): 0.10 µM
both, human, 10 min
  Measured concentration of PEA (analyte): 0.46 µM
both, human, 20 min
  Measured concentration of PEA (analyte): 0.42 µM
both, human, 30 min
  Measured concentration of PEA (analyte): 0.39 µM
both, human, 60 min
  Measured concentration of PEA (analyte): 0.27 µM
both, human, s9, 0 h
  % Remaining of Initial: 100%
both, human, s9, 10 min
  % Remaining of Initial: 4.9%
both, human, s9, 20 min
  % Remaining of Initial: 2.1%
both, human, s9, 0.5 h
  % Remaining of Initial: <1.0%
both, human, s9, 1 h
  % Remaining of Initial: <1.0%
both, human, s9, Half-life
  half-life at 1 μM: < 10 min
male, Beagle, dog, 0 min
  Measured concentration of PEA (analyte): 0.053 µM
male, Beagle, dog, 10 min
  Measured concentration of PEA (analyte): 0.26 µM
male, Beagle, dog, 20 min
  Measured concentration of PEA (analyte): 0.33 µM
male, Beagle, dog, 30 min
  Measured concentration of PEA (analyte): 0.29 µM
male, Beagle, dog, 60 min
  Measured concentration of PEA (analyte): 0.23 µM
male, Beagle, dog, s9, 0 h
  % Remaining of Initial: 100%
male, Beagle, dog, s9, 10 min
  % Remaining of Initial: 2.1%
male, Beagle, dog, s9, 20 min
  % Remaining of Initial: <1.0%
male, Beagle, dog, s9, 0.5 h
  % Remaining of Initial: <1.0%
male, Beagle, dog, s9, 1 h
  % Remaining of Initial: <1.0%
male, Beagle, dog, s9, Half-life
  half-life at 1 μM: < 10 min
male, CD-1, mouse, 0 min
  Measured concentration of PEA (analyte): 0.33 µM
male, CD-1, mouse, 10 min
  Measured concentration of PEA (analyte): 0.78 µM
male, CD-1, mouse, 20 min
  Measured concentration of PEA (analyte): 0.68 µM
male, CD-1, mouse, 30 min
  Measured concentration of PEA (analyte): 0.59 µM
male, CD-1, mouse, 60 min
  Measured concentration of PEA (analyte): 0.43 µM
male, CD-1, mouse, s9, 0 h
  % Remaining of Initial: 100%
male, CD-1, mouse, s9, 10 min
  % Remaining of Initial: 3.7%
male, CD-1, mouse, s9, 20 min
  % Remaining of Initial: <1.0%
male, CD-1, mouse, s9, 0.5 h
  % Remaining of Initial: <1.0%
male, CD-1, mouse, s9, 1 h
  % Remaining of Initial: <1.0%
[1]
  half-life at 1 μM: < 10 min
[2]
  Measured concentration of PEA (analyte): 0.050 µM
[3]
  Measured concentration of PEA (analyte): 0.13 µM
[4]
  Measured concentration of PEA (analyte): 0.13 µM
[5]
  Measured concentration of PEA (analyte): 0.058 µM
[6]
  Measured concentration of PEA (analyte): 0.020 µM
[7]
  % Remaining of Initial: 100%
[8]
  % Remaining of Initial: 3.0%
[9]
  % Remaining of Initial: <1.0%
[10]
  % Remaining of Initial: <1.0%
[11]
  % Remaining of Initial: <1.0%
[12]
  half-life at 1 μM: < 10 min
male, Sprague-Dawley, rat, s9, Half-life, calculated value in parentheses
  half-life at 1 μM: 2 min

## C[C@]12CC[C@H]3[C@@H](CCC4=CC(=O)CC[C@@]43C)[C@@H]1CC[C@@H]2O [Testosterone, testosterone, reference compound]
Control Compound, Human liver S9
  Half-life: 28 min
Control Compound, Mouse liver S9
  Half-life: 9.0 min
Control Compound, Rat liver S9
  CLint: 0.260 ml/min/mg protein
Human liver S9
  Half-life: 28 min
male, Beagle, s9
  half-life: 25 min
male, CD-1, mouse, s9
  Half-life: 17 min
  half-life: 8.7 min
male, Sprague-Dawley, rat, s9, Half-life, Control Compound, Rat liver S9
  half-life: 2.7 min
male, Sprague-Dawley, rat, s9, Half-life, Rat liver S9
  half-life at 1 μM: 2.7 min
male, Sprague-Dawley, rat, s9, Half-life, control compound, rat liver S9
  half-life: 2.7 min
